pKi: −log10 of the molar value.
Tests used:
[1] = molecular target: Matrix metalloproteinase-14 (Homo sapiens) (UniProt P50281); assay: MT1-MMP(H)(MMP-14) Eurofins SafetyScreen44 (BI); settings: Compound concentration 10.0 uM
[2] = molecular target: 5-hydroxytryptamine receptor 1D (Homo sapiens, UniProt P28221); assay: GPCRScan assay: inhibition of 5-HT1D; parameters: radioligand conc. used [nm] 1.0 – 2.0, parental cells HEKT
[3] = molecular target: Muscarinic acetylcholine receptor M2 (Homo sapiens) (UniProt P08172); settings: Compound concentration 10.0 uM
[4] = molecular target: Neuronal acetylcholine receptor; alpha4/beta2 (Homo sapiens) (UniProt P17787+P43681); assay: N_NEURO_A4B2 Eurofins SafetyScreen44 (BI); type: protein-complex assay; settings: filed as agonist, Compound concentration 10.0 uM
Caspase-3 (Homo sapiens) = Caspase-3 (Homo sapiens) (UniProt P42574); assay: CASPASE-3 Eurofins SafetyScreen44 (BI); settings: Compound concentration 10.0 uM
Caspase-2 (Homo sapiens) = Caspase-2 (Homo sapiens) (UniProt P42575); assay: CASPASE-2(H) Eurofins SafetyScreen44 (BI); settings: Compound concentration 10.0 uM
[5] = molecular target: Delta-type opioid receptor (Homo sapiens) (UniProt P41143); assay: DELTA2/H Eurofins SafetyScreen44 (BI); settings: Compound concentration 10.0 uM
[6] = molecular target: 5-hydroxytryptamine receptor 1A (Homo sapiens) (UniProt P08908); assay: 5HT1A/H Eurofins SafetyScreen44 (BI); settings: Compound concentration 10.0 uM
[7] = molecular target: cGMP-inhibited 3',5'-cyclic phosphodiesterase 3A (Homo sapiens) (UniProt Q14432); assay: PDE3A Eurofins SafetyScreen44 (BI); settings: Compound concentration 10.0 uM
[8] = molecular target: D(4) dopamine receptor (Homo sapiens) (UniProt P21917); settings: Compound concentration 10.0 uM
[9] = molecular target: Disintegrin and metalloproteinase domain-containing protein 17 (Homo sapiens) (UniProt P78536); assay: TACE Eurofins SafetyScreen44 (BI); settings: Compound concentration 10.0 uM
[10] = molecular target: Alpha-2A adrenergic receptor (Homo sapiens) (UniProt P08913); assay: ALPHA2A/HU Eurofins SafetyScreen44 (BI); settings: Compound concentration 10.0 uM
[11] = molecular target: Histamine H2 receptor (Homo sapiens) (UniProt P25021); settings: Compound concentration 10.0 uM
[12] = molecular target: 5-hydroxytryptamine receptor 6 (Homo sapiens) (UniProt P50406); settings: Compound concentration 10.0 uM
[13] = molecular target: Prostaglandin G/H synthase 1 (Homo sapiens) (UniProt P23219); assay: COX-1 Eurofins SafetyScreen44 (BI); settings: Compound concentration 10.0 uM
[14] = molecular target: Tyrosine-protein kinase Lck (Homo sapiens) (UniProt P06239); assay: LCK_CE Eurofins SafetyScreen44 (BI); settings: Compound concentration 10.0 uM
[15] = molecular target: Caspase-10 (Homo sapiens) (UniProt Q92851); assay: CASPASE-10(H) Eurofins SafetyScreen44 (BI); settings: Compound concentration 10.0 uM
[16] = molecular target: Cathepsin Z (Homo sapiens) (UniProt Q9UBR2); assay: CATHEPSINX(H) Eurofins SafetyScreen44 (BI); settings: Compound concentration 10.0 uM
[17] = molecular target: Muscarinic acetylcholine receptor M4 (Homo sapiens) (UniProt P08173); settings: Compound concentration 10.0 uM
[18] = molecular target: 3',5'-cyclic-AMP phosphodiesterase 4D (Homo sapiens) (UniProt Q08499); assay: PDE4D2 Eurofins SafetyScreen44 (BI); settings: Compound concentration 10.0 uM
[19] = molecular target: Cathepsin E (Homo sapiens) (UniProt P14091); assay: CATHEPSINE Eurofins SafetyScreen44 (BI); settings: Mus musculus; Compound concentration 10.0 uM
Caspase-6 (Homo sapiens) = Caspase-6 (Homo sapiens) (UniProt P55212); assay: CASPASE-6_CE Eurofins SafetyScreen44 (BI); settings: Compound concentration 10.0 uM
[20] = molecular target: Angiotensin-converting enzyme (Homo sapiens) (UniProt P12821); assay: ACE(HU) Eurofins SafetyScreen44 (BI); settings: Compound concentration 10.0 uM
[21] = molecular target: Cathepsin D (Homo sapiens) (UniProt P07339); assay: CATHEPSIND Eurofins SafetyScreen44 (BI); settings: Compound concentration 10.0 uM
[22] = molecular target: Alpha-1B adrenergic receptor (Homo sapiens) (UniProt P35368); settings: Compound concentration 10.0 uM
[23] = molecular target: Kappa-type opioid receptor (Homo sapiens, UniProt P41145); settings: Compound concentration 10.0 uM
[24] = molecular target: 5-hydroxytryptamine receptor 2A (Homo sapiens) (UniProt P28223); assay: 5HT2AH_AGON Eurofins SafetyScreen44 (BI); settings: filed as agonist, Compound concentration 10.0 uM
[25] = molecular target: Histamine H2 receptor (Homo sapiens) (UniProt P25021); assay: H2/APT/HS Eurofins SafetyScreen44 (BI); settings: filed as antagonist, Compound concentration 10.0 uM
[26] = molecular target: Collagenase 3 (Homo sapiens) (UniProt P45452); assay: MMP-13 (H) Eurofins SafetyScreen44 (BI); settings: Compound concentration 10.0 uM
[27] = molecular target: D(2) dopamine receptor (Homo sapiens) (UniProt P14416); settings: Compound concentration 10.0 uM
[28] = molecular target: Muscarinic acetylcholine receptor M1 (Homo sapiens) (UniProt P11229); assay: M1/H Eurofins SafetyScreen44 (BI); settings: Compound concentration 10.0 uM
Caspase-1 (Homo sapiens) = Caspase-1 (Homo sapiens) (UniProt P29466); assay: CASPASE-1(H) Eurofins SafetyScreen44 (BI); settings: Compound concentration 10.0 uM
[29] = molecular target: 72 kDa type IV collagenase (Homo sapiens) (UniProt P08253); assay: MMP-2 (H) Eurofins SafetyScreen44 (BI); settings: Compound concentration 10.0 uM
[30] = molecular target: GABA-A receptor; anion channel (Rattus norvegicus) (UniProt O09028+P15431+P18506+P18508+P19969+P20236+P23574+P23576+P28471+P28473+P30191+P62813+P63079+P63138+Q91ZM7+Q9ES14); settings: Compound concentration 10.0 uM
[31] = molecular target: Dipeptidyl peptidase 4 (Homo sapiens) (UniProt P27487); assay: DIPEPTIDYLPEPTIDASE Eurofins SafetyScreen44 (BI); settings: Compound concentration 10.0 uM
Rattus norvegicus [32] = species: Rattus norvegicus; settings: Compound concentration 10.0 uM
[33] = molecular target: 5-hydroxytryptamine receptor 2C (Homo sapiens) (UniProt P28335); settings: Compound concentration 10.0 uM
[34] = molecular target: Histamine H4 receptor (Homo sapiens) (UniProt Q9H3N8); settings: Compound concentration 10.0 uM
[35] = molecular target: 5-hydroxytryptamine receptor 1E (Homo sapiens) (UniProt P28566); settings: Compound concentration 10.0 uM
[36] = molecular target: D(1A) dopamine receptor (Homo sapiens) (UniProt P21728); assay: D1/H Eurofins SafetyScreen44 (BI); settings: filed as antagonist, Compound concentration 10.0 uM
Rattus norvegicus [37] = species: Rattus norvegicus; assay: NA+/SITE2/R Eurofins SafetyScreen44 (BI); settings: Compound concentration 10.0 uM
[38] = molecular target: Muscarinic acetylcholine receptor M1 (Homo sapiens) (UniProt P11229); settings: Compound concentration 10.0 uM
[39] = molecular target: Macrophage metalloelastase (Homo sapiens) (UniProt P39900); assay: MMP-12 Eurofins SafetyScreen44 (BI); settings: Compound concentration 10.0 uM
[40] = molecular target: Prothrombin (Homo sapiens) (UniProt P00734); assay: THROMBIN Eurofins SafetyScreen44 (BI); settings: Compound concentration 10.0 uM
[41] = molecular target: 5-hydroxytryptamine receptor 1A (Homo sapiens) (UniProt P08908); settings: Compound concentration 10.0 uM

Sequence of 5-hydroxytryptamine receptor 1A (Homo sapiens) (P08908 whole entry): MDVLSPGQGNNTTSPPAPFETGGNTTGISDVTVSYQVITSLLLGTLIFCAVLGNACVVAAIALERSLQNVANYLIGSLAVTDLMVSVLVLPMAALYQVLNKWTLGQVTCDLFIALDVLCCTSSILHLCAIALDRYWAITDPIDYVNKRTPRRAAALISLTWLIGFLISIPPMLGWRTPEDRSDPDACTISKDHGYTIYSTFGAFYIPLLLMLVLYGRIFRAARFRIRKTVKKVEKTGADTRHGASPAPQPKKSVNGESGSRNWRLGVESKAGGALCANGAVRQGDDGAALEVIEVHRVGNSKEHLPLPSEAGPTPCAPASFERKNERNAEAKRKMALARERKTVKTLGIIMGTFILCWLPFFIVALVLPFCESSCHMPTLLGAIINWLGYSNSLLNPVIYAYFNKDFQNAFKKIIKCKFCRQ
Sequence of Histamine H2 receptor (Homo sapiens) (P25021 whole entry): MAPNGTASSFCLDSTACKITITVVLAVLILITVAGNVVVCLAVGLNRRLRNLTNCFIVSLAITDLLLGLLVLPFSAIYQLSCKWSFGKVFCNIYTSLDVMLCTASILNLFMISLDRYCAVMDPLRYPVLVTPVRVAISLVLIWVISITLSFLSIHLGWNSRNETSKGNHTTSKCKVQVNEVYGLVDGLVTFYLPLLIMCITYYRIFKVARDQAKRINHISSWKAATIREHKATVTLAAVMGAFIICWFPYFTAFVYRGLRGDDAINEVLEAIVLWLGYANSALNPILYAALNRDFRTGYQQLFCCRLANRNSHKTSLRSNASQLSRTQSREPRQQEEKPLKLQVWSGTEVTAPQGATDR
Sequence of Muscarinic acetylcholine receptor M1 (Homo sapiens) (P11229 whole entry): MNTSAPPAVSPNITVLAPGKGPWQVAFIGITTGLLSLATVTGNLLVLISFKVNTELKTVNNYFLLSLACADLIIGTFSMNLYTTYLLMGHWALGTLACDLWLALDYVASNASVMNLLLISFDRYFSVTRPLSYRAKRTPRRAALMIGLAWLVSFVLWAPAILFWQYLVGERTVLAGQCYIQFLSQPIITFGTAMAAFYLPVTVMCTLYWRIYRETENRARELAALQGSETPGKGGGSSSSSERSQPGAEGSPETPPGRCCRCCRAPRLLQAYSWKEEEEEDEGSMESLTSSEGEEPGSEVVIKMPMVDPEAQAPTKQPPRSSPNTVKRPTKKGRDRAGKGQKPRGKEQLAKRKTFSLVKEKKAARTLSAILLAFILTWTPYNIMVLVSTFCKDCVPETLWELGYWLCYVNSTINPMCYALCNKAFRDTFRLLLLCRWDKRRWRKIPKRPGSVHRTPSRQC
Sequence of 3',5'-cyclic-AMP phosphodiesterase 4D (Homo sapiens) (Q08499 whole entry): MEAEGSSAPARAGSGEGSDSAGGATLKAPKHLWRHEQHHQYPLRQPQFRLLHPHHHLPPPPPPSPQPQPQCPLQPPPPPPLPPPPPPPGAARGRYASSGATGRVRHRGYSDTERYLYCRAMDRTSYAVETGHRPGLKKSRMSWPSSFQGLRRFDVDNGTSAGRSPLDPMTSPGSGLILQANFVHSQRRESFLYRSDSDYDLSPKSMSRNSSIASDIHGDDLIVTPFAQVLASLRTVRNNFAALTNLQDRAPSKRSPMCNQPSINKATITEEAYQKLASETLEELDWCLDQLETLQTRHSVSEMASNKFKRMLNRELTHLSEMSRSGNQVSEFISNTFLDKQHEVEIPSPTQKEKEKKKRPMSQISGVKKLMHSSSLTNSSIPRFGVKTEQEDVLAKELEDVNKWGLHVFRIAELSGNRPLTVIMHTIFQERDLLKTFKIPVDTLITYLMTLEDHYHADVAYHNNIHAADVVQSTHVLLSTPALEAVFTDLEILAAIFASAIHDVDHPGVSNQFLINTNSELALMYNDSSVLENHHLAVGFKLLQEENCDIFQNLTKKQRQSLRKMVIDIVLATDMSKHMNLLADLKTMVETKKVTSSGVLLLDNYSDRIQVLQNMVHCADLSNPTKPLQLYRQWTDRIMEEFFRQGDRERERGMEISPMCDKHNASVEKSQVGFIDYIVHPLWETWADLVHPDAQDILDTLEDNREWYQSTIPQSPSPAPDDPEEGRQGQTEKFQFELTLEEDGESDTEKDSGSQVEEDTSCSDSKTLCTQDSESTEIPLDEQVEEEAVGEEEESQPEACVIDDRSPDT
Sequence of Delta-type opioid receptor (Homo sapiens) (P41143 whole entry): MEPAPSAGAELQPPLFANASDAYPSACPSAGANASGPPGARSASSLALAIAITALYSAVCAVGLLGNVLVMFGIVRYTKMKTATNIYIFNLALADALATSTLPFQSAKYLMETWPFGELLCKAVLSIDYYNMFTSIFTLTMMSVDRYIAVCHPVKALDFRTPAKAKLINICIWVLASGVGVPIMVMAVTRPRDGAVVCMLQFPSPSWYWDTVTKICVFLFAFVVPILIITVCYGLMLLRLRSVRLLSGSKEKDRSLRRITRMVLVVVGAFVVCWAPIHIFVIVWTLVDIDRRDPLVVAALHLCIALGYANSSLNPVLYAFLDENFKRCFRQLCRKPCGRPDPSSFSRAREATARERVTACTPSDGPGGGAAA
Sequence of Muscarinic acetylcholine receptor M2 (Homo sapiens) (P08172 whole entry): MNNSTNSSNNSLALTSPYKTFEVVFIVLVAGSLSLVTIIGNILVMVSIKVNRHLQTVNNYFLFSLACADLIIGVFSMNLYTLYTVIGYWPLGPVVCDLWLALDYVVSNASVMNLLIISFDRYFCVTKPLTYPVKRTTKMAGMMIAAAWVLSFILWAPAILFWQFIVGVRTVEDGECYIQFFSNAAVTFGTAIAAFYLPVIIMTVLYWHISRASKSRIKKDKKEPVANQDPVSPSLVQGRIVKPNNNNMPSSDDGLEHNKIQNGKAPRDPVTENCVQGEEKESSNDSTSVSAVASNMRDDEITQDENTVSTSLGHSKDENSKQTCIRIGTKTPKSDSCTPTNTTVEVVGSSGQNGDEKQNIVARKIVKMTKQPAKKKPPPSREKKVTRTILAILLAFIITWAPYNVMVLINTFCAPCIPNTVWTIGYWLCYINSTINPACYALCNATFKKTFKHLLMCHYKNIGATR
Sequence of 5-hydroxytryptamine receptor 1D (P28221 whole entry): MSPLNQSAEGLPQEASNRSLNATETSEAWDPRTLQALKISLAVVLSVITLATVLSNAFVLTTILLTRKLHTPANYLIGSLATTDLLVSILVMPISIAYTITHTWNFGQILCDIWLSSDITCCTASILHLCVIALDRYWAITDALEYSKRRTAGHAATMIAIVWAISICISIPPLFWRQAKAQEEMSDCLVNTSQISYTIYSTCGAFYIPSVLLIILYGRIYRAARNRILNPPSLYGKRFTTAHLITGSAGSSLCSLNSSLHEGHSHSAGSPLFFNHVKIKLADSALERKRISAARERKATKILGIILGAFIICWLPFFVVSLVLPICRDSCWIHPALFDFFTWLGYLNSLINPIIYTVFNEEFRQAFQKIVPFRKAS
Sequence of Prostaglandin G/H synthase 1 (Homo sapiens) (P23219 whole entry): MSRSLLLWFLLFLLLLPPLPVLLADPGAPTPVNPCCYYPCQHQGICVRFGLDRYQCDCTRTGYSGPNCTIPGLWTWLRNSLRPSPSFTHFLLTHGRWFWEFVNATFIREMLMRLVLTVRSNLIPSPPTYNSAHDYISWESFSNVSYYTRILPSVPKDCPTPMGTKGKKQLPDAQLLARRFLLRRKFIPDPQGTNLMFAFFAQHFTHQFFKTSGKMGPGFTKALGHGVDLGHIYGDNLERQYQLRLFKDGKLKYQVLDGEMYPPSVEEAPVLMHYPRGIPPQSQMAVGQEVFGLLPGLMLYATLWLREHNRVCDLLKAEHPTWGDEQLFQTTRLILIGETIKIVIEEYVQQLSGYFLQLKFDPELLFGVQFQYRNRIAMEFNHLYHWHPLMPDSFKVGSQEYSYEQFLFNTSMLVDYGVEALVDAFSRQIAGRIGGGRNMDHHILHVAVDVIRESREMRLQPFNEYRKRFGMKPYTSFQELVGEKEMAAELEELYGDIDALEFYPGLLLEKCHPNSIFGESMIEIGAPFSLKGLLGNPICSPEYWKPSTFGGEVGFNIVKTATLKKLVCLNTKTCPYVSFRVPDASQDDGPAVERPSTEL
Sequence of D(1A) dopamine receptor (Homo sapiens) (P21728 whole entry): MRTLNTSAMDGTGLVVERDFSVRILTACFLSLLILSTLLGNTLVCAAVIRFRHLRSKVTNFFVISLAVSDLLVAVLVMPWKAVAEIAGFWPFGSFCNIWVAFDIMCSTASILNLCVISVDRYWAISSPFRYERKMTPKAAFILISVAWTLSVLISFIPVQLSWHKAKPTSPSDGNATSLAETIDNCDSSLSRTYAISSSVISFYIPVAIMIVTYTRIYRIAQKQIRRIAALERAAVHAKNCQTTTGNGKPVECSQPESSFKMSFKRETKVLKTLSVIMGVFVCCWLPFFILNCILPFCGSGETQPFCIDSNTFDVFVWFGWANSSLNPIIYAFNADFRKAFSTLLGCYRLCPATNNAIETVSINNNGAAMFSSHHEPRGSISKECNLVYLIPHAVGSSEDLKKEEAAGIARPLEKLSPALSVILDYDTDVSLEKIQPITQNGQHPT
Sequence of 72 kDa type IV collagenase (Homo sapiens) (P08253 110-660 limits assumed): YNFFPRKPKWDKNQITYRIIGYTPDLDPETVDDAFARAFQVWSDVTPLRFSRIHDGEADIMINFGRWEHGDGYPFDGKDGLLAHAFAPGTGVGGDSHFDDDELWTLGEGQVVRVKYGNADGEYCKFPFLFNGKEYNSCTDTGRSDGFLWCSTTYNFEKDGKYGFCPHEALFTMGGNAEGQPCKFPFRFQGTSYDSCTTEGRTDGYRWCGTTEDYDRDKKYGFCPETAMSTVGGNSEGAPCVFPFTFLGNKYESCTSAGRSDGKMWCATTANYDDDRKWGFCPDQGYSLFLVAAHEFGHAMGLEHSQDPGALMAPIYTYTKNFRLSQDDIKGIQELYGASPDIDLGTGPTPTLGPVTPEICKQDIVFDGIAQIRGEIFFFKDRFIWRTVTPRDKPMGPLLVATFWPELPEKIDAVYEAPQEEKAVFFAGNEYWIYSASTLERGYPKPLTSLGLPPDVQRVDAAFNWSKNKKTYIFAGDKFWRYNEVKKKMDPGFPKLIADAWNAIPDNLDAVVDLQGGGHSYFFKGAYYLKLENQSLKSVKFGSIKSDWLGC

## CC[C@H](CC(=O)O)n1c(=O)c2ncccc2n(Cc2cn(C)c3cc(C)cc(C)c23)c1=O [BI-1942]
[1]
  residual activity: 134%
[2]
  pKi: 5.95
[3]
  inhibition: 12%
[4]
  residual activity: 103%
Caspase-3 (Homo sapiens)
  residual activity: 97%
Caspase-2 (Homo sapiens)
  residual activity: 156%
[5]
  residual activity: 95%
[6]
  residual activity: 79%
[7]
  residual activity: 94%
[8]
  inhibition: -1.4%
[9]
  residual activity: 88%
[10]
  residual activity: 90%
[11]
  inhibition: -4.71%
[12]
  inhibition: 12.2%
[13]
  residual activity: 134%
[14]
  residual activity: 103%
[15]
  residual activity: 111%
[16]
  residual activity: 98%
[17]
  inhibition: 9.09%
[18]
  residual activity: 106%
[19]
  residual activity: 106%
Caspase-6 (Homo sapiens)
  residual activity: 99%
[20]
  residual activity: 127%
[21]
  residual activity: 118%
[22]
  inhibition: -5.58%
[23]
  inhibition: 95.9%
[24]
  residual activity: 87%
[25]
  residual activity: 114%
[26]
  residual activity: 109%
[27]
  inhibition: 0.91%
[28]
  residual activity: 112%
Caspase-1 (Homo sapiens)
  residual activity: 103%
[29]
  residual activity: 103%
[30]
  inhibition: 3.5%
[31]
  residual activity: 107%
Rattus norvegicus [32]
  inhibition: 12.2%
[33]
  inhibition: 1.02%
[34]
  inhibition: -5.56%
[35]
  inhibition: -9.73%
[36]
  residual activity: 96%
Rattus norvegicus [37]
  residual activity: 97%
[38]
  inhibition: 8.69%
[39]
  residual activity: 104%
[40]
  residual activity: 102%
[41]
  inhibition: 8.83%

From ChEMBL document CHEMBL4800723, “Data for DCP probe BI-1942” (2021)
